Assay results from ChEMBL document CHEMBL1141983, “QSAR of estrogen receptor modulators: exploring selectivity requirements for ER(alpha) versus ER(beta) binding of tetrahydroisoquinoline derivatives using E-state and physicochemical parameters” (Bioorg Med Chem Lett, 2005).

Key:
[1] = target: T1, Estrogen receptor (Homo sapiens, UniProt P03372)
T1 sequence (P03372 whole entry): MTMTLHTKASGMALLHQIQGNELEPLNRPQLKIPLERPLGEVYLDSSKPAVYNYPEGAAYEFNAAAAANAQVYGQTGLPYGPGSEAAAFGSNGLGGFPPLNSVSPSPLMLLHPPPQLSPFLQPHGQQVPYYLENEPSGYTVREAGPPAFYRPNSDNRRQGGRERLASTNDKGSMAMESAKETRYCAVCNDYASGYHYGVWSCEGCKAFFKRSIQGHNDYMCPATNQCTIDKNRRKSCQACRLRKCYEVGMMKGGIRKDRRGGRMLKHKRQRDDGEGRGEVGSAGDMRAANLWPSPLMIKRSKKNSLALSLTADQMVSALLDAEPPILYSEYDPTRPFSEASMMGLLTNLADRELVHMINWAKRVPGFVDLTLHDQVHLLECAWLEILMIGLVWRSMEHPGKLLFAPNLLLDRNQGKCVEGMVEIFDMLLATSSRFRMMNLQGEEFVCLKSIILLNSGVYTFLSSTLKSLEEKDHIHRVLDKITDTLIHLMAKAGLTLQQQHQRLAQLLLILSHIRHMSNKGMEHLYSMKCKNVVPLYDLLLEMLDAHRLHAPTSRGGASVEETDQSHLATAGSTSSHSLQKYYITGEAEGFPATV
Description: (§1) Inhibition of transcriptional activation by human estrogen receptor alpha

[2] = target: T2, Estrogen receptor beta (Homo sapiens, UniProt Q92731); assay: Inhibition of binding to human estrogen receptor beta
[3] = target: T1, Estrogen receptor; remark: listed apart in the source
Description: Inhibition of binding to human estrogen receptor alpha

[4] = target: T1, Estrogen receptor; remark: listed apart in the source
Description: as §1

[5] = target: T2, Estrogen receptor beta; assay: Inhibition of transcriptional activation by human estrogen receptor beta

T2 sequence (Q92731 whole entry): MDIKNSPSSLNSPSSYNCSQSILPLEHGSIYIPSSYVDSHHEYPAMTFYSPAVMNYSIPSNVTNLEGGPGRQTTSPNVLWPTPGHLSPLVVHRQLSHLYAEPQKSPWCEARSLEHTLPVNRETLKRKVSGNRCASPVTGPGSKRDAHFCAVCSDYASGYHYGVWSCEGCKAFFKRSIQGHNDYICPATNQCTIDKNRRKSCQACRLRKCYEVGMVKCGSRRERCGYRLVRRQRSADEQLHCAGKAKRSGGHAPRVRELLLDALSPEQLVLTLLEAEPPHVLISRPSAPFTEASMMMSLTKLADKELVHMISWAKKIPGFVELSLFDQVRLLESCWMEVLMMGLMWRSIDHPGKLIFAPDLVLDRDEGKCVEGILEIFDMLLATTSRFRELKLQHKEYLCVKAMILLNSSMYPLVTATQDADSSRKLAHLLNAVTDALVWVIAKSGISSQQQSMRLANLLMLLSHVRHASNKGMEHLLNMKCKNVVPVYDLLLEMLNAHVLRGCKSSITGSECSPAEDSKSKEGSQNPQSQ

Structure (SMILES)	pIC50(uM) [1]	other results
CC(C)c1ccc(N2CCc3cc(O)ccc3C2(C)c2ccc(OCCN3CCCC3)cc2)cc1 (stereo not given)	2.585	
CN(C)c1cccc(N2CCc3cc(O)ccc3C2c2ccc(OCCN3CCCCC3)cc2)c1 (stereo not given)		IC50 [2]: 3.11 µM; IC50 [3]: 71 nM; IC50 [4]: 19.8 nM; IC50 [5]: 2180 nM
CC1(c2ccc(OCCN3CCCC3)cc2)c2ccc(O)cc2CCN1c1ccccc1 (stereo not given)	2.745	
CC1(c2ccc(OCCN3CCCCCC3)cc2)c2ccc(O)cc2CCN1c1ccccc1 (stereo not given)	2.824	
CC1(c2ccc(OCCN3CCCCC3)cc2)c2ccc(O)cc2CCN1c1ccc(Cl)cc1 (stereo not given)	2.509	
CC1(c2ccc(OCCN3CCCCC3)cc2)c2ccc(O)cc2CCN1c1cccc(Cl)c1 (stereo not given)	2.347	
CC1(c2ccc(OCCN3CCCCC3)cc2)c2ccc(O)cc2CCN1c1ccccc1 (stereo not given)	2.585	
CC1(c2ccc(OCCN3CCCC3)cc2)c2ccc(O)cc2CCN1c1cccc(F)c1 (stereo not given)	2.523	
CC1(c2ccc(OCCN3CCCC3)cc2)c2ccc(O)cc2CCN1c1ccc(F)cc1 (stereo not given)	2.796	
CC1(c2ccc(OCCN3CCCC3)cc2)c2ccc(O)cc2CCN1c1cccc(Cl)c1 (stereo not given)	2.538	
CC1(c2ccc(OCCN3CCCCC3)cc2)c2ccc(O)cc2CCN1c1cccc(O)c1 (stereo not given)	3.155	
CC(C)c1ccc(N2CCc3cc(O)ccc3C2(C)c2ccc(OCCN3CCCCC3)cc2)cc1 (stereo not given)	2.284	
